Experimental data as given in patent US7125990B2, “Imidazolyl derivatives as corticotropin releasing factor inhibitors” (Bristol-Myers Squibb COmpany, priority 2001, dated 2006).
pKi: −log10 of the molar value.

target: T1, CRF1 receptors (Homo sapiens, UniProt P34998); assay: CRF1 receptor radioligand binding assay ([125I]-oCRF competition, IMR-32 cell membranes); conditions: IMR-32 cell membranes, [125I]-oCRF 100 pM; read-out: Ki (CRF-1R)
T1 construct: endogenous in cells; host or cells: IMR-32 cells, transformed with 2.5 µM 5'-bromo-2'-deoxyuridine for 10 days; membrane preparation
T1 sequence (P34998 24-415): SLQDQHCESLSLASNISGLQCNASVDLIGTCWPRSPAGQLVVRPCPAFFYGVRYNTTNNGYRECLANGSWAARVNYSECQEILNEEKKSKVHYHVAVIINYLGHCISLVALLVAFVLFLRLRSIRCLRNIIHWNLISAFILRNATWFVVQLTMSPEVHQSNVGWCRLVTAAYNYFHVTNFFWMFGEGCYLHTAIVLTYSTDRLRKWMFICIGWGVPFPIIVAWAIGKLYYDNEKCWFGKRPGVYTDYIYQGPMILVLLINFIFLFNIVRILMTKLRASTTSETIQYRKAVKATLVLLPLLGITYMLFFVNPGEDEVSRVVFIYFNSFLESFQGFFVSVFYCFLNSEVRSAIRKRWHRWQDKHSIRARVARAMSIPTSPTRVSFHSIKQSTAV
How it was run: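 Buffer: Tris pH 7.2 with MgCl2, BSA, Triton X-100, aprotinin, leupeptin; reaction stopped with ice-cold wash and filtered. Nonspecific binding set with 10 μM oCRF.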

| SMILES | pKi |
| --- | --- |
| CCN(CCc1ccccc1)Cc1c(C(F)(F)F)nc2n1CCCN2c1c(C)cc(C)cc1Cl [Example 120, [8-(2-Chloro-4,6-dimethyl-phenyl)-2-trifluoromethyl-5,6,7,8-tetrahydro-imidazo[1,2-a]pyrimidin-3-ylmethyl]-ethyl-phenethyl-amine] | > 6.00 |
| CCCN(CCc1ccccc1)Cc1c(C(F)(F)F)nc2n1CCCN2c1c(C)cc(C)cc1Cl [Example 121, [8-(2-Chloro-4,6-dimethyl-phenyl)-2-trifluoromethyl-5,6,7,8-tetrahydro-imidazo[1,2-a]pyrimidin-3-ylmethyl]-phenethyl-propyl-amine] | > 6.00 |
| Cc1cc(C)c(N2CCCn3c2nc(C(F)(F)F)c3CN(CCC2CC2)CCC(F)(F)F)c(Cl)c1 [Example 122, [8-(2-Chloro-4,6-dimethyl-phenyl)-2-trifluoromethyl-5,6,7,8-tetrahydro-imidazo[1,2-a]pyrimidin-3-ylmethyl]-(2-cyclopropyl-ethyl)-(3,3,3-trifluoro-propyl)-amine] | > 6.00 |
| CCN(CCC1CC1)Cc1c(C(F)(F)F)nc2n1CCCN2c1c(C)cc(C)cc1Cl [Example 123, [8-(2-Chloro-4,6-dimethyl-phenyl)-2-trifluoromethyl-5,6,7,8-tetrahydro-imidazo[1,2-a]pyrimidin-3-ylmethyl]-(2-cyclopropyl-ethyl)-ethyl-amine] | > 6.00 |
| CCCN(CCC1CC1)Cc1c(C(F)(F)F)nc2n1CCCN2c1c(C)cc(C)cc1Cl [Example 124, [8-(2-Chloro-4,6-dimethyl-phenyl)-2-trifluoromethyl-5,6,7,8-tetrahydro-imidazo[1,2-a]pyrimidin-3-ylmethyl]-(2-cyclopropyl-ethyl)-propyl-amine] | > 6.00 |
| Cc1cc(C)c(N2CCCn3c2nc(C(F)(F)F)c3CN(CCC(F)(F)F)Cc2ccccc2)c(Cl)c1 [Example 125, Benzyl-[8-(2-chloro-4,6-dimethyl-phenyl)-2-trifluoromethyl-5,6,7,8-tetrahydro-imidazo[1,2-a]pyrimidin-3-ylmethyl]-(3,3,3-trifluoro-propyl)-amine] | > 6.00 |
| Cc1cc(C)c(N2CCCn3c2nc(C(F)(F)F)c3CN(CCC2CC2)CC(F)(F)F)c(Cl)c1 [Example 126, [8-(2-Chloro-4,6-dimethyl-phenyl)-2-trifluoromethyl-5,6,7,8-tetrahydro-imidazo[1,2-a]pyrimidin-3-ylmethyl]-(2-cyclopropyl-ethyl)-(2,2,2-trifluoro-ethyl)-amine] | > 6.00 |
| Cc1cc(C)c(N2CCCn3c2nc(C(F)(F)F)c3CN(CCC(F)(F)F)Cc2ccc(F)cc2)c(Cl)c1 [Example 127, [8-(2-Chloro-4,6-dimethyl-phenyl)-2-trifluoromethyl-5,6,7,8-tetrahydro-imidazo[1,2-a]pyrimidin-3-ylmethyl]-(4-fluoro-benzyl)-(3,3,3-trifluoro-propyl)-amine] | > 6.00 |
| Cc1cc(C)c(N2CCCn3c2nc(C(F)(F)F)c3CN(CCC(F)(F)F)Cc2ccc(Cl)cc2)c(Cl)c1 [Example 128, (4-Chloro-benzyl)-[8-(2-chloro-4,6-dimethyl-phenyl)-2-trifluoromethyl-5,6,7,8-tetrahydro-imidazo[1,2-a]pyrimidin-3-ylmethyl]-(3,3,3-trifluoro-propyl)-amine] | > 6.00 |
| CCCN(Cc1ccc(Cl)cc1)Cc1c(C(F)(F)F)nc2n1CCCN2c1c(C)cc(C)cc1Cl [Example 129, (4-Chloro-benzyl)-[8-(2-chloro-4,6-dimethyl-phenyl)-2-trifluoromethyl-5,6,7,8-tetrahydro-imidazo[1,2-a]pyrimidin-3-ylmethyl]-propyl-amine] | > 6.00 |
| CCCN(Cc1ccccc1)Cc1c(C(F)(F)F)nc2n1CCCN2c1c(C)cc(C)cc1Cl [Example 130, Benzyl-[8-(2-chloro-4,6-dimethyl-phenyl)-2-trifluoromethyl-5,6,7,8-tetrahydro-imidazo[1,2-a]pyrimidin-3-ylmethyl]-propyl-amine] | > 6.00 |
| CCCN(Cc1ccc(F)cc1)Cc1c(C(F)(F)F)nc2n1CCCN2c1c(C)cc(C)cc1Cl [Example 132, [8-(2-Chloro-4,6-dimethyl-phenyl)-2-trifluoromethyl-5,6,7,8-tetrahydro-imidazo[1,2-a]pyrimidin-3-ylmethyl]-(4-fluoro-benzyl)-propyl-amine] | > 6.00 |
| Cc1cc(C)c(N2CCCn3c2nc(C(F)(F)F)c3CN(CCC(F)(F)F)Cc2cccc(F)c2)c(Cl)c1 [Example 133, [8-(2-Chloro-4,6-dimethyl-phenyl)-2-trifluoromethyl-5,6,7,8-tetrahydro-imidazo[1,2-a]pyrimidin-3-ylmethyl]-(3-fluoro-benzyl)-(3,3,3-trifluoro-propyl)-amine] | > 6.00 |
| CCCN(Cc1cccc(F)c1)Cc1c(C(F)(F)F)nc2n1CCCN2c1c(C)cc(C)cc1Cl [Example 134, [8-(2-Chloro-4,6-dimethyl-phenyl)-2-trifluoromethyl-5,6,7,8-tetrahydro-imidazo[1,2-a]pyrimidin-3-ylmethyl]-(3-fluoro-benzyl)-propyl-amine] | > 6.00 |

Further lines, results first:

| pKi | SMILES |
| --- | --- |
| > 6.00 | CCCN(CCC)Cc1c(C(F)(F)F)nc2n1CCCN2c1c(C)cc(C)cc1Cl [Example 109, [8-(2-Chloro-4,6-dimethyl-phenyl)-2-trifluoromethyl-5,6,7,8-tetrahydro-imidazo[1,2-a]pyrimidin-3-ylmethyl]-dipropyl-amine] |
| > 6.00 | CCCN(CCOC)Cc1c(C(F)(F)F)nc2n1CCCN2c1c(C)cc(C)cc1Cl [Example 110, [8-(2-Chloro-4,6-dimethyl-phenyl)-2-trifluoromethyl-5,6,7,8-tetrahydro-imidazo[1,2-a]pyrimidin-3-ylmethyl]-(2-methoxy-ethyl)-propyl-amine] |
| > 6.00 | CCCN(Cc1c(C(F)(F)F)nc2n1CCCN2c1c(C)cc(C)cc1Cl)CC1CCC1 [Example 111, [8-(2-Chloro-4,6-dimethyl-phenyl)-2-trifluoromethyl-5,6,7,8-tetrahydro-imidazo[1,2-a]pyrimidin-3-ylmethyl]-cyclobutylmethyl-propyl-amine] |
| > 7.00 | Cc1cc(C)c(N2CCCn3c2nc(C(F)(F)F)c3CN(CC2CCC2)CC(F)(F)F)c(Cl)c1 [Example 112, [8-(2-Chloro-4,6-dimethyl-phenyl)-2-trifluoromethyl-5,6,7,8-tetrahydro-imidazo[1,2-a]pyrimidin-3-ylmethyl]-cyclobutylmethyl-(2,2,2-trifluoro-ethyl)-amine] |
| > 7.00 | CCN(Cc1c(C(F)(F)F)nc2n1CCCN2c1c(C)cc(C)cc1Cl)CC1CC1 [Example 113, [8-(2-Chloro-4,6-dimethyl-phenyl)-2-trifluoromethyl-5,6,7,8-tetrahydro-imidazo[1,2-a]pyrimidin-3-ylmethyl]-cyclopropylmethyl-ethyl-amine] |
| > 6.00 | CCCN(Cc1c(C(F)(F)F)nc2n1CCCN2c1c(C)cc(C)cc1Cl)CC(F)(F)F [Example 114, [8-(2-Chloro-4,6-dimethyl-phenyl)-2-trifluoromethyl-5,6,7,8-tetrahydro-imidazo[1,2-a]pyrimidin-3-ylmethyl]-propyl-(2,2,2-trifluoro-ethyl)-amine] |
| > 7.00 | Cc1cc(C)c(N2CCCn3c2nc(C(F)(F)F)c3CN(CC2CC2)CC(F)(F)C(F)(F)F)c(Cl)c1 [Example 115, [8-(2-Chloro-4,6-dimethyl-phenyl)-2-trifluoromethyl-5,6,7,8-tetrahydro-imidazo[1,2-a]pyrimidin-3-ylmethyl]-cyclopropylmethyl-(2,2,3,3,3-pentafluoro-propyl)-amine] |
| > 6.00 | CCCN(CCC(F)(F)F)Cc1c(C(F)(F)F)nc2n1CCCN2c1c(C)cc(C)cc1Cl [Example 116, [8-(2-Chloro-4,6-dimethyl-phenyl)-2-trifluoromethyl-5,6,7,8-tetrahydro-imidazo[1,2-a]pyrimidin-3-ylmethyl]-propyl-(3,3,3-trifluoro-propyl)-amine] |
| > 6.00 | CCCN(Cc1c(C(F)(F)F)nc2n1CCCN2c1c(C)cc(C)cc1Cl)CC(F)(F)C(F)(F)F [Example 117, [8-(2-Chloro-4,6-dimethyl-phenyl)-2-trifluoromethyl-5,6,7,8-tetrahydro-imidazo[1,2-a]pyrimidin-3-ylmethyl]-(2,2,3,3,3-pentafluoro-propyl)-propyl-amine] |
| > 6.00 | Cc1cc(C)c(N2CCCn3c2nc(C(F)(F)F)c3CN(CCc2ccccc2)CCC(F)(F)F)c(Cl)c1 [Example 118, [8-(2-Chloro-4,6-dimethyl-phenyl)-2-trifluoromethyl-5,6,7,8-tetrahydro-imidazo[1,2-a]pyrimidin-3-ylmethyl]-phenethyl-(3,3,3-trifluoro-propyl)-amine] |
| > 6.00 | Cc1cc(C)c(N2CCCn3c2nc(C(F)(F)F)c3CN(CCc2ccccc2)CC(F)(F)F)c(Cl)c1 [Example 119, [8-(2-Chloro-4,6-dimethyl-phenyl)-2-trifluoromethyl-5,6,7,8-tetrahydro-imidazo[1,2-a]pyrimidin-3-ylmethyl]-phenethyl-(2,2,2-trifluoro-ethyl)-amine] |
| > 7.00 | C=CCN(CCC)Cc1c(C(F)(F)F)nc2n1CCCN2c1c(C)cc(C)cc1Cl [Example 131, Allyl-[8-(2-chloro-4,6-dimethyl-phenyl)-2-trifluoromethyl-5,6,7,8-tetrahydro-imidazo[1,2-a]pyrimidin-3-ylmethyl]-propyl-amine] |
| > 7.00 | Cc1cc(C)c(N2CCCn3c2nc(C(F)(F)F)c3CN(CC2CC2)CC(F)(F)F)c(Cl)c1 [Example 135, [8-(2-Chloro-4,6-dimethyl-phenyl)-2-trifluoromethyl-5,6,7,8-tetrahydro-imidazo[1,2-a]pyrimidin-3-ylmethyl]-cyclopropylmethyl-(2,2,2-trifluoroethyl)-amine] |
